Assay results taken from US20260355323A1, “CEREBLON-RECRUITING BCL-XL/BCL-2 DUAL DEGRADERS” (University of Florida Research Foundation, Incorporated, priority 2022, published 2026).

Columns and labels:
[1] = tested on: MOLT-4 acute lymphoblastic leukemia cells; assay: Cell viability, tetrazolium-based MTS assay, MOLT-4; conditions: Homo sapiens, MOLT-4, 48 h; read-out: Anti-Cancer Activity EC50 (48 hr), MOLT-4
Protocol: (§1) Acute lymphoblastic leukemia cells (MOLT-4 and RS4;11) were incubated with increasing concentrations of Bcl-xL/Bcl-2 degraders for 48 h. Cell viability was measured by tetrazolium-based MTS assay.

[2] = tested on: RS4;11 acute lymphoblastic leukemia cells; assay: Cell viability, tetrazolium-based MTS assay, RS4;11; conditions: Homo sapiens, RS4;11, 48 h, read-out: Anti-Cancer Activity EC50 (48 hr), RS4
Protocol: as §1

WI-38 NC = assay: Senolytic activity, cell viability (PrestoBlue HS), WI-38 NC; assay type: cell-based; conditions: Homo sapiens, 72 h
Protocol: WI-38 and HUVEC cells were incubated with increasing concentrations of degraders for 72 h. Cell viability was measured using PrestoBlue HS cell viability reagent.

| SMILES | EC50 [1] [µM] | EC50 [2] [µM] | EC50 (WI-38 NC) [µM] | IC50 [2] [µM] |
| --- | --- | --- | --- | --- |
| CC1(CN2CCN(C(=O)CN3CCN(C(=O)CNc4ccc5c(c4)C(=O)N(C4CCC(=O)NC4=O)C5=O)CC3)CC2)CCC(c2ccc(Cl)cc2)=C(CN2CCN(c3ccc(C(=O)NS(=O)(=O)c4ccc(N[C@H](CCN5CCOCC5)CSc5ccccc5)c(S(=O)(=O)C(F)(F)F)c4)cc3)CC2)C1 (stereo partly drawn) [Compound 17, 4-(4-((4′-chloro-4-((4-(2-(4-((2-(2,6-dioxopiperidin-3-yl)-1,3-dioxoisoindolin-5-yl)glycyl)piperazin-1-yl)acetyl)piperazin-1-yl)methyl)-4-methyl-3,4,5,6-tetrahydro-[1,1′-biphenyl]-2-yl)methyl)piperazin-1-yl)-N-((4-(((R)-4-morpholino-1-(phenylthio)butan-2-yl)amino)-3-((trifluoromethyl)sulfonyl)phenyl)sulfonyl)benzamide] | < 0.001 | < 0.001 | > 10 |  |
| CC1(CN2CCCN(c3ccc4c(c3)CN(C3CCC(=O)NC3=O)C4=O)CC2)CCN(C[C@]2(C)CCC(c3ccc(Cl)cc3)=C(CN3CCN(c4ccc(C(=O)NS(=O)(=O)c5ccc(N[C@H](CCN6CCCOCC6)CSc6ccccc6)c(S(=O)(=O)C(F)(F)F)c5)cc4)CC3)C2)CC1 (stereo partly drawn) [Compound 136, N-((4-(((R)-4-(1,4-oxazepan-4-yl)-1-(phenylthio)butan-2-yl)amino)-3-((trifluoromethyl)sulfonyl)phenyl)sulfonyl)-4-(4-(((4R)-4′-chloro-4-((4-((4-(2-(2,6-dioxopiperidin-3-yl)-1-oxoisoindolin-5-yl)-1,4-diazepan-1-yl)methyl)-4-methylpiperidin-1-yl)methyl)-4-methyl-3,4,5,6-tetrahydro-[1,1′-biphenyl]-2-yl)methyl)piperazin-1-yl)benzamide] | < 0.001 | < 0.001 |  |  |
| C[C@@]1(CN2CCC(CN3CCN(c4ccc(C(=O)N[C@H]5CCC(=O)NC5=O)c(F)c4)CC3)CC2)CCC(c2ccc(Cl)cc2)=C(CN2CCN(c3ccc(C(=O)NS(=O)(=O)c4ccc(N[C@H](CCN5CCCOCC5)CSc5ccccc5)c(S(=O)(=O)C(F)(F)F)c4)cc3)CC2)C1 [Compound 137, 4-(4-((1-(((R)-6-((4-(4-(((4-(((R)-4-(1,4-oxazepan-4-yl)-1-(phenylthio)butan-2-yl)amino)-3-((trifluoromethyl)sulfonyl)phenyl)sulfonyl)carbamoyl)phenyl)piperazin-1-yl)methyl)-4′-chloro-4-methyl-2,3,4,5-tetrahydro-[1,1′-biphenyl]-4-yl)methyl)piperidin-4-yl)methyl)piperazin-1-yl)-N-((S)-2,6-dioxopiperidin-3-yl)-2-fluorobenzamide] | 0.001 to 0.01 | 0.001 to 0.01 |  |  |
| CC1(CN2CCN(c3ncc(C(=O)NCCCCNc4cccc5c4C(=O)N(C4CCC(=O)NC4=O)C5=O)cn3)CC2)CCC(c2ccc(Cl)cc2)=C(CN2CCN(c3ccc(C(=O)NS(=O)(=O)c4ccc(N[C@H](CCN5CCOCC5)CSc5ccccc5)c(S(=O)(=O)C(F)(F)F)c4)cc3)CC2)C1 (stereo partly drawn) [Compound 20, 2-(4-((4′-chloro-4-methyl-6-((4-(4-(((4-(((R)-4-morpholino-1-(phenylthio)butan-2-yl)amino)-3-((trifluoromethyl)sulfonyl)phenyl)sulfonyl)carbamoyl)phenyl)piperazin-1-yl)methyl)-2,3,4,5-tetrahydro-[1,1′-biphenyl]-4-yl)methyl)piperazin-1-yl)-N-(4-((2-(2,6-dioxopiperidin-3-yl)-1,3-dioxoisoindolin-4-yl)amino)butyl)pyrimidine-5-carboxamide] | 0.001 to 0.01 | 0.01 to 0.1 |  |  |
| CC1(CN2CCN(c3ncc(C(=O)NCCNc4cccc5c4C(=O)N(C4CCC(=O)NC4=O)C5=O)cn3)CC2)CCC(c2ccc(Cl)cc2)=C(CN2CCN(c3ccc(C(=O)NS(=O)(=O)c4ccc(N[C@H](CCN5CCOCC5)CSc5ccccc5)c(S(=O)(=O)C(F)(F)F)c4)cc3)CC2)C1 (stereo partly drawn) [Compound 19, 2-(4-((4′-chloro-4-methyl-6-((4-(4-(((4-(((R)-4-morpholino-1-(phenylthio)butan-2-yl)amino)-3-((trifluoromethyl)sulfonyl)phenyl)sulfonyl)carbamoyl)phenyl)piperazin-1-yl)methyl)-2,3,4,5-tetrahydro-[1,1′-biphenyl]-4-yl)methyl)piperazin-1-yl)-N-(2-((2-(2,6-dioxopiperidin-3-yl)-1,3-dioxoisoindolin-4-yl)amino)ethyl)pyrimidine-5-carboxamide] | 0.001 to 0.01 | 0.01 to 0.1 |  |  |
| CC1(CN2CCN(c3ccc(C#CCCCN4CCN(c5cccc6c5C(=O)N(C5CCC(=O)NC5=O)C6=O)CC4)cn3)CC2)CCC(c2ccc(Cl)cc2)=C(CN2CCN(c3ccc(C(=O)NS(=O)(=O)c4ccc(N[C@H](CCN5CCOCC5)CSc5ccccc5)c(S(=O)(=O)C(F)(F)F)c4)cc3)CC2)C1 (stereo partly drawn) [Compound 23, 4-(4-((4′-chloro-4-((4-(5-(5-(4-(2-(2,6-dioxopiperidin-3-yl)-1,3-26 dioxoisoindolin-4-yl)piperazin-1-yl)pent-1-yn-1-yl)pyridin-2-yl)piperazin-1-yl)methyl)-4-methyl-3,4,5,6-tetrahydro-[1,1′-biphenyl]-2-yl)methyl)piperazin-1-yl)-N-((4-(((R)-4-morpholino-1-(phenylthio)butan-2-yl)amino)-3-28 ((trifluoromethyl)sulfonyl)phenyl)sulfonyl)benzamide] | 10 to 100 | 0.01 to 0.1 |  |  |
| C[C@@]1(CN2CCN(c3ccc(NC4CCC(=O)NC4=O)cc3F)CC2)CCC(c2ccc(Cl)cc2)=C(CN2CCN(c3ccc(C(=O)NS(=O)(=O)c4ccc(N[C@H](CCN5CCCOCC5)CSc5ccccc5)c(S(=O)(=O)C(F)(F)F)c4)cc3)CC2)C1 (stereo partly drawn) [Compound 140, N-((4-(((R)-4-(1,4-oxazepan-4-yl)-1-(phenylthio)butan-2-yl)amino)-3-((trifluoromethyl)sulfonyl)phenyl)sulfonyl)-4-(4-(((4R)-4′-chloro-4-((4-(4-((2,6-dioxopiperidin-3-yl)amino)-2-fluorophenyl)piperazin-1-yl)methyl)-4-methyl-3,4,5,6-tetrahydro-[1,1′-biphenyl]-2-yl)methyl)piperazin-1-yl)benzamide] | 0.001 to 0.01 | 0.01 to 0.1 |  |  |
| CC1(CN2CCN(c3ccc(OCCCCCN4CCN(c5cccc6c5C(=O)N(C5CCC(=O)NC5=O)C6=O)CC4)cn3)CC2)CCC(c2ccc(Cl)cc2)=C(CN2CCN(c3ccc(C(=O)NS(=O)(=O)c4ccc(N[C@H](CCN5CCOCC5)CSc5ccccc5)c(S(=O)(=O)C(F)(F)F)c4)cc3)CC2)C1 (stereo partly drawn) [Compound 22, 4-(4-((4′-chloro-4-((4-(5-((5-(4-(2-(2,6-dioxopiperidin-3-yl)-1,3-dioxoisoindolin-4-yl)piperazin-1-yl)pentyl)oxy)pyridin-2-yl)piperazin-1-yl)methyl)-4-methyl-3,4,5,6-tetrahydro-[1,1′-biphenyl]-2-yl)methyl)piperazin-1-yl)-N-((4-(((R)-4-morpholino-1-(phenylthio)butan-2-yl)amino)-3-22 ((trifluoromethyl)sulfonyl)phenyl)sulfonyl)benzamide] | 0.01 to 0.1 | 0.01 to 0.1 |  |  |
| C[C@@]1(CN2CCC(CN3CCN(c4ccc(C(=O)N[C@@H]5CCC(=O)NC5=O)c(F)c4)CC3)CC2)CCC(c2ccc(Cl)cc2)=C(CN2CCN(c3ccc(C(=O)NS(=O)(=O)c4ccc(N[C@H](CCN5CCCOCC5)CSc5ccccc5)c(S(=O)(=O)C(F)(F)F)c4)cc3)CC2)C1 [Compound 138, 4-(4-((1-(((R)-6-((4-(4-(((4-(((R)-4-(1,4-oxazepan-4-yl)-1-(phenylthio)butan-2-yl)amino)-3-((trifluoromethyl)sulfonyl)phenyl)sulfonyl)carbamoyl)phenyl)piperazin-1-yl)methyl)-4′-chloro-4-methyl-2,3,4,5-tetrahydro-[1,1′-biphenyl]-4-yl)methyl)piperidin-4-yl)methyl)piperazin-1-yl)-N-((R)-2,6-dioxopiperidin-3-yl)-2-fluorobenzamide] | 0.001 to 0.01 | 0.001 to 0.01 |  |  |
| C[C@@]1(CN2CCC(CN3CCN(c4ccc(C(=O)N[C@H]5CCC(=O)NC5=O)cc4)CC3)CC2)CCC(c2ccc(Cl)cc2)=C(CN2CCN(c3ccc(C(=O)NS(=O)(=O)c4ccc(N[C@H](CCN5CCCOCC5)CSc5ccccc5)c(S(=O)(=O)C(F)(F)F)c4)cc3)CC2)C1 [Compound 139, N-((4-(((R)-4-(1,4-oxazepan-4-yl)-1-(phenylthio)butan-2-yl)amino)-3-((trifluoromethyl)sulfonyl)phenyl)sulfonyl)-4-(4-(((R)-4′-chloro-4-((4-((4-(4-(((S)-2,6-dioxopiperidin-3-yl)carbamoyl)phenyl)piperazin-1-yl)methyl)piperidin-1-yl)methyl)-4-methyl-3,4,5,6-tetrahydro-[1,1′-biphenyl]-2-yl)methyl)piperazin-1-yl)benzamide] | 0.001 to 0.01 | 0.001 to 0.01 |  |  |
| CC1(CN2CCN(c3ncc(C(=O)NCCCCCCNc4cccc5c4C(=O)N(C4CCC(=O)NC4=O)C5=O)cn3)CC2)CCC(c2ccc(Cl)cc2)=C(CN2CCN(c3ccc(C(=O)NS(=O)(=O)c4ccc(N[C@H](CCN5CCOCC5)CSc5ccccc5)c(S(=O)(=O)C(F)(F)F)c4)cc3)CC2)C1 (stereo partly drawn) [Compound 21, 2-(4-((4′-chloro-4-methyl-6-((4-(4-(((4-(((R)-4-morpholino-1-(phenylthio)butan-2-yl)amino)-3-((trifluoromethyl)sulfonyl)phenyl)sulfonyl)carbamoyl)phenyl)piperazin-1-yl)methyl)-2,3,4,5-tetrahydro-[1,1′-biphenyl]-4-yl)methyl)piperazin-1-yl)-N-(6-((2-(2,6-dioxopiperidin-3-yl)-1,3-dioxoisoindolin-4-yl)amino)hexyl)pyrimidine-5-carboxamide] | 0.01 to 0.1 |  |  | 10 to 100 |
